Assay results published in patent publication US20250186489A1, “REPROGRAMMING OF CELLS TO TYPE 1 CONVENTIONAL DENDRITIC CELLS OR ANTIGEN-PRESENTING CELLS” (Asgard Therapeutics AB, priority 2021, published 2025).

Tests used:
[1] = tested on: human embryonic fibroblasts (HEF); assay: cDC1 reprogramming efficiency of human embryonic fibroblasts, flow cytometry for CD45+HLA-DR+ cells at day 9; type: cell-based; conditions: for effect on cDC1 reprogramming efficiency when co-expressed with PU.1, IRF8 and BATF3: HEF co-transduced with TetO-PIB, M2rtTA and the individual factor
Experimental: HEFs, HDFs and Clec9a-tdTomato MEFs were seeded at a density of 40,000 cells per well and MSCs at a density of 50,000 cells per well on 0.1% gelatin coated 6-well plates. On the following day, cells were incubated overnight with either a ratio of 1:1 TetO-PIB and M2rtTA, SFFV-PIB-GFP or SFFV-GFP lentiviral particles in media supplemented with 8 μg/ml polybrene. Cells were transduced overnight twice in consecutive days and media replaced in between. After the second transduction, media was replaced by normal growth media (day 0). When using TetO-PIB, media was supplemented with Dox (1 μg/ml). Media was changed every 2-3 days for the duration of cultures. When stated, media was supplemented with LPS (100 ng/ml, Enzo), Poly I:C (25 μg/ml, InvivoGen) and R848 (3 μg/ml, InvivoGen) overnight. Cytokines were added at day 2 and kept for the duration of cultures; For reprogramming in xeno-free conditions, MSCs were cultured in X-Vivo 15 (Lonza) after transduction and media changed every 2-3 days for the duration of cultures.
For the analysis of surface marker expression, human and mouse cells were dissociated and incubated with antibodies diluted in PBS 5% FBS at 4° C. for 30 minutes in the presence of mouse or rat serum (1/100, GeneTex), for human and mouse cells respectively, to block unspecific binding. Cells were washed and resuspended in PBS 5% FBS and analyzed in BD FACSCanto II or BD LSRFortessa flow cytometers (BD Biosciences), unless stated otherwise. DAPI was used for dead cell exclusion. Flow cytometry data were analyzed using FlowJo software (FLOWJO, LLC, version 10.6.1). All flow cytometry analyses were performed in live single cell gates.
Coding regions of ID2, TXNIP, ZFP36, PLEK, SUB1, JUNB, CREM, KLF4, MXD1, LITAF, IRF7, FOS, NMI, TFEC, SP110, IRF5, STAT2, BATF, ZNF267, IRF1, RELB and BATF2 were individually cloned in the pFUW-TetO plasmid. […] Reprogramming efficiency was evaluated by flow cytometry in HEFs 9 days after transcription factor overexpression.
17 human hematopoietic cytokines including inflammatory mediators (Table 3) were individually added to the culture media 2 days after PIB induction in HEFs, and reprogramming efficiency was measured at day 9. Changes in reprogramming efficiency were analysed using both single cytokines and combinations of two or three cytokines.
The impact on reprogramming efficiency after a combination of cytokine treatment and SFFV-driven PIB induction was evaluated. The scPred system was used for integration with “natural” DCs. See previous Examples for experimental details.

[2] = tested on: Clec9a-tdTomato mouse embryonic fibroblasts (MEFs); assay: Replacement of PU.1 by homologs in cDC1 reprogramming of Clec9a-tdTomato MEFs; type: cell-based; conditions: for tdTomato^+ cells (Clec9a reporter activation): factor in combination with IRF8 and BATF3
Experimental: Coding regions of SPIB and SPIC were individually cloned in the pFUW-TetO plasmid. Lentiviral particles encoding each individual transcription factor or the reverse tetracycline transactivator M2rtTA under the control of constitutively active human ubiquitin C promoter (pFUW-UbC-M2rtTA) were used for co-transduction (Rosa et al. 2018). Reprogramming efficiency was evaluated by flow cytometry in Clec9a-tdTomato mouse embryonic fibroblasts (MEFs) 9 days after transcription factor overexpression.

[3] = HEF with Dox-inducible PIB, individual cytokine
[4] = HEF with SFFV-PIB in the presence of anti-inflammatory cytokine

**Q.** For GM-CSF: cytokine, which “impact on reprogramming efficiency” value [1, 3] is on record?
**A.** did not impact reprogramming efficiency

**Q.** With IL-1β: cytokine as the molecule, how does the “fold increase in reprogramming efficiency versus condition without cytokines” value ([1]; HEF with Dox-inducible PIB) read?
**A.** 3 fold

**Q.** How did the “fold increase in reprogramming efficiency versus condition without cytokines” value ([1]; HEF with Dox-inducible PIB) turn out when IL-6: cytokine was run?
**A.** 2.5 fold

**Q.** What does the source list for “SPIB: ETS-domain transcription factor, PU.1 homolog, SEQ ID NO: 23”?
**A.** reporter activation by the factor alone [2]: not able to activate the DC-specific reporter; tdTomato^+ cells (Clec9a reporter activation) [2]: about 8.14±1.16%; tdTomato^+ cells co-expressing CD45 and MHC-II ([2]; factor in combination with IRF8 and BATF3, gated in tdTomato^+): 33.63±3.76%; ability to replace PU.1 in cDC1 reprogramming ([2]; with IRF8 and BATF3): could replace PU.1; fold increase in tdTomato^+ cells co-expressing CD45 and MHC-II in comparison to PU.1 ([2]; with IRF8 and BATF3): 2 fold

**Q.** Which results are given for “SPIC: ETS-domain transcription factor, PU.1 homolog, SEQ ID NO: 25”?
**A.** reporter activation by the factor alone [2]: not able to activate the DC-specific reporter; tdTomato^+ cells (Clec9a reporter activation) [2]: 1.46±0.73%; ability to replace PU.1 in cDC1 reprogramming ([2]; with IRF8 and BATF3): could replace PU.1

**Q.** What does the source list for TGF-β?
**A.** fold reduction of reprogramming efficiency [1, 4]: 2 fold; impact on CD40 expression in hiDCs [1, 4]: did not impact CD40 expression

**Q.** TNF-α was tested. Which “fold increase in reprogramming efficiency versus condition without cytokines” value ([1]; HEF with Dox-inducible PIB) did it give?
**A.** 3 fold

B1: FLT3L: cytokine (protein, UniProt P49771 27-235, looked up)
Fms-related tyrosine kinase 3 …: TQDCSFQHSPISSDFAVKIRELSDYLLQDYPVTVASNLQDEELCGGLWRLVLAQRWMERLKTVAGSKMQGLLERVNTEIHFVTKCAFQPPPSCLRFVQTNISRLLQETSEQLVALKPWITRQNFSRCLELQCQPDSSTLPPPWSPRPLEATAPTAPQPPLLLLLLLPVGLLLLAAAWCLHWQRTRRRTPRPGEQVPPVPSPQDLLLVEH
**Q.** How did the “impact on reprogramming efficiency” value [1, 3] turn out when B1 was run?
**A.** did not impact reprogramming efficiency

B2: IL-4: cytokine (protein, UniProt P05112 25-153, looked up)
Interleukin-4: HKCDITLQEIIKTLNSLTEQKTLCTELTVTDIFAASKNTTEKETFCRAATVLRQFYSHHEKDTRCLGATAQQFHRHKQLIRFLKRLDRNLWGLAGLNSCPVKEANQSTLENFLERLKTIMREKYSKCSS
**Q.** For B2, which “impact on reprogramming efficiency” value [1, 3] is on record?
**A.** did not impact reprogramming efficiency

B3: BATF: nuclear basic leucine zipper transcription factor, SEQ ID NO: 19 (protein, listed as Homo sapiens)
chain: MPHSSDSSDSSFSRSPPPGKQDSSDDVRRVQRREKNRIAAQKSRQRQTQKADTLHLESEDLEKQNAALRKEIKQLTEELKYFTSVLNSHEPLCSVLAASTPSPPEVVYSAHAFHQPHVSSPRFQP
modifications: basic leucine zipper transcriptional factor ATF-like [Homo sapiens], peptide sequence
**Q.** B3 was tested. Which “effect on cDC1 reprogramming efficiency when co-expressed with PU.1, IRF8 and BATF3” value [1] did it give?
**A.** increased cDC1 reprogramming efficiency

B4: IRF7: transcription factor of the interferon regulatory factor family, SEQ ID NO: 21 (protein, listed as Homo sapiens)
chain: MPVPERPAAGPDSPRPGTRRAAPRVLFGEWLLGEISSGCYEGLQWLDEARTCFRVPWKHFARKDLSEADARIFKAWAVARGRWPPSSRGGGPPPEAETAERAGWKTNFRCALRSTRRFVMLRDNSGDPADPHKVYALSRELCWREGPGTDQTEAEAPAAVPPPQGGPPGPFLAHTHAGLQAPGPLPAPAGDKGDLLLQAVQQSCLADHLLTASWGADPVPTKAPGEGQEGLPLTGACAGGPGLPAGELYGWAVETTPSPGPQPAALTTGEAAAPESPHQAEPYLSPSPSACTAVQEPSPGALDVTIMYKGRTVLQKVVGHPSCTFLYGPPDPAVRATDPQQVAFPSPAELPDQKQLRYTEELLRHVAPGLHLELRGPQLWARRMGKCKVYWEVGGPPGSASPSTPACLLPRNCDTPIFDFRVFFQELVEFRARQRRGSPRYTIYLGFGQDLSAGRPKEKSLVLVKLEPWLCRVHLEGTQREGVSSLDSSSLSLCLSSANSLYDDIECFLMELEQPA
modifications: Interferon regulatory factor 7 [Homo sapiens], peptide sequence
**Q.** Which “effect on cDC1 reprogramming efficiency when co-expressed with PU.1, IRF8 and BATF3” value [1] does the source give for B4 here?
**A.** increased cDC1 reprogramming efficiency

B5: IL-10: anti-inflammatory cytokine (protein, UniProt P22301 19-178, looked up)
Interleukin-10: SPGQGTQSENSCTHFPGNLPNMLRDLRDAFSRVKTFFQMKDQLDNLLLKESLLEDFKGYLGCQALSEMIQFYLEEVMPQAENQDPDIKAHVNSLGENLKTLRLRLRRCHRFLPCENKSKAVEQVKNAFNKLQEKGIYKAMSEFDIFINYIEAYMTMKIRN
**Q.** What does the source list for B5?
**A.** impact on CD40 expression in hiDCs [1, 4]: did not impact CD40 expression; impact on reprogramming efficiency [1, 4]: did not impact reprogramming efficiency

B6: Oncostatin M: cytokine (protein, UniProt P13725 26-221, looked up)
Oncostatin-M: AAIGSCSKEYRVLLGQLQKQTDLMQDTSRLLDPYIRIQGLDVPKLREHCRERPGAFPSEETLRGLGRRGFLQTLNATLGCVLHRLADLEQRLPKAQDLERSGLNIEDLEKLQMARPNILGLRNNIYCMAQLLDNSDTAEPTKAGRGASQPPTPTPASDAFQRKLEGCRFLHGYHRFMHSVGRVFSKWGESPNRSRR
**Q.** For B6, which “fold increase in reprogramming efficiency versus condition without cytokines” value ([1]; HEF with Dox-inducible PIB) is on record?
**A.** 4 fold
